In patent publication US20210045385A1, “PYRIDAZINONE-SUBSTITUTED KETOXIMES AS HERBICIDES” (FMC Corporation, priority 2018, published 2021):

Key:
Format in all cases: in vivo
[1] = system: barnyardgrass (Echinochloa crus-galli); experiment: Test A preemergence, visual plant response rating; conditions: for Barnyardgrass plant response rating: 125 g ai/ha, preemergence, 0 to 100 scale, 0 no effect, 100 complete control; for Barnyardgrass plant response rating (0 to 100 scale): 500 g ai/ha Preemergence, approx. 10 days
How it was run: (§1)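 Preemergence: seeds in loam/sand blend given directed soil spray of compound in non-phytotoxic solvent with surfactant. Postemergence: plants 2–10 cm, one- to two-leaf stage, sprayed with same formulation. Visual injury rated vs untreated controls after ~10 days in greenhouse, 0 (no effect) to 100 (complete control).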

kochia (Kochia scoparia) [2] = experiment: Test A preemergence, visual plant response rating; conditions: for Kochia plant response rating: 125 g ai/ha, preemergence, 0 to 100 scale, 0 no effect, 100 complete control; for Kochia plant response rating (0 to 100 scale): 500 g ai/ha Preemergence, approx. 10 days
How it was run: as §1

[3] = system: foxtail, giant (giant foxtail, Setaria faberii); experiment: Test A preemergence, visual plant response rating; conditions: for Foxtail, Giant plant response rating: 125 g ai/ha, preemergence, 0 to 100 scale, 0 no effect, 100 complete control; for Foxtail, Giant plant response rating (0 to 100 scale): 500 g ai/ha Preemergence, approx. 10 days
How it was run: as §1

[4] = system: pigweed (Amaranthus retroflexus); experiment: Test A preemergence, visual plant response rating; conditions: for Pigweed plant response rating: 125 g ai/ha, preemergence, 0 to 100 scale, 0 no effect, 100 complete control; for Pigweed plant response rating (0 to 100 scale): 500 g ai/ha Preemergence, approx. 10 days
How it was run: as §1

[5] = system: ragweed (common ragweed, Ambrosia elatior); experiment: Test A preemergence, visual plant response rating; conditions: for Ragweed plant response rating: 125 g ai/ha, preemergence, 0 to 100 scale, 0 no effect, 100 complete control; for Ragweed plant response rating (0 to 100 scale): 500 g ai/ha Preemergence, approx. 10 days
How it was run: as §1

[6] = system: Italian ryegrass (Lolium multiflorum); experiment: Test A preemergence, visual plant response rating; conditions: for Ryegrass, Italian plant response rating: 125 g ai/ha, preemergence, 0 to 100 scale, 0 no effect, 100 complete control; for Ryegrass, Italian plant response rating (0 to 100 scale): 500 g ai/ha Preemergence, approx. 10 days
How it was run: as §1

[7] = system: barnyardgrass (Echinochloa crus-galli); experiment: Test A postemergence, visual plant response rating; conditions: for Barnyardgrass plant response rating (0 to 100 scale): 500 g ai/ha, postemergence, 0 is no effect, 100 is complete control; for Barnyardgrass plant response rating: Postemergence, 125 g ai/ha, 0 to 100 scale (0 no effect, 100 complete control)
How it was run: as §1

[8] = system: galium (catchweed bedstraw, Galium aparine); experiment: Test A postemergence, visual plant response rating; conditions: for Galium plant response rating (0 to 100 scale): 500 g ai/ha, postemergence, 0 is no effect, 100 is complete control; for Galium plant response rating: Postemergence, 125 g ai/ha, 0 to 100 scale (0 no effect, 100 complete control)
How it was run: as §1

[9] = system: blackgrass (Alopecurus myosuroides); experiment: Test A postemergence, visual plant response rating; conditions: for Blackgrass plant response rating (0 to 100 scale): 500 g ai/ha, postemergence, 0 is no effect, 100 is complete control; for Blackgrass plant response rating: Postemergence, 125 g ai/ha, 0 to 100 scale (0 no effect, 100 complete control)
How it was run: as §1

kochia (Kochia scoparia) [10] = experiment: Test A postemergence, visual plant response rating; conditions: for Kochia plant response rating (0 to 100 scale): 500 g ai/ha, postemergence, 0 is no effect, 100 is complete control; for Kochia plant response rating: Postemergence, 125 g ai/ha, 0 to 100 scale (0 no effect, 100 complete control)
How it was run: as §1

[11] = system: foxtail, giant (giant foxtail, Setaria faberii); experiment: Test A postemergence, visual plant response rating; conditions: for Foxtail, Giant plant response rating (0 to 100 scale): 500 g ai/ha, postemergence, 0 is no effect, 100 is complete control; for Foxtail, Giant plant response rating: Postemergence, 125 g ai/ha, 0 to 100 scale (0 no effect, 100 complete control)
How it was run: as §1

[12] = system: pigweed (Amaranthus retroflexus); experiment: Test A postemergence, visual plant response rating; conditions: for Pigweed plant response rating (0 to 100 scale): 500 g ai/ha, postemergence, 0 is no effect, 100 is complete control; for Pigweed plant response rating: Postemergence, 125 g ai/ha, 0 to 100 scale (0 no effect, 100 complete control)
How it was run: as §1

corn (Zea mays) = experiment: Test A postemergence, visual plant response rating; conditions: for Corn plant response rating (0 to 100 scale): 500 g ai/ha, postemergence, 0 is no effect, 100 is complete control; for Corn plant response rating: Postemergence, 125 g ai/ha, 0 to 100 scale (0 no effect, 100 complete control)
How it was run: as §1

[13] = system: ragweed (common ragweed, Ambrosia elatior); experiment: Test A postemergence, visual plant response rating; conditions: for Ragweed plant response rating (0 to 100 scale): 500 g ai/ha, postemergence, 0 is no effect, 100 is complete control; for Ragweed plant response rating: Postemergence, 125 g ai/ha, 0 to 100 scale (0 no effect, 100 complete control)
How it was run: as §1

[14] = system: wheat (Triticum aestivum); experiment: Test A postemergence, visual plant response rating; conditions: for Wheat plant response rating (0 to 100 scale): 500 g ai/ha, postemergence, 0 is no effect, 100 is complete control; for Wheat plant response rating: Postemergence, 125 g ai/ha, 0 to 100 scale (0 no effect, 100 complete control)
How it was run: as §1

[15] = system: Italian ryegrass (Lolium multiflorum); experiment: Test A postemergence, visual plant response rating; conditions: for Ryegrass, Italian plant response rating (0 to 100 scale): 500 g ai/ha, postemergence, 0 is no effect, 100 is complete control; for Ryegrass, Italian plant response rating: Postemergence, 125 g ai/ha, 0 to 100 scale (0 no effect, 100 complete control)
How it was run: as §1

[16] = system: barnyardgrass (Echinochloa crus-galli); experiment: Test B flooded paddy test, visual plant response rating; conditions: 250 g ai/ha, Flood, applied to paddy water, 2-leaf stage, evaluated after 13 to 15 days
How it was run: (§2)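 Visual scores compare treated plants with controls after 13 to 15 days of greenhouse growth. Treatment was made into paddy water standing 3 cm above the soil, with plants at the 2-leaf stage and flooding maintained throughout.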

[17] = system: ducksalad (Heteranhera limosa); experiment: as above; conditions: 250 g ai/ha, Flood, applied to paddy water, 2-leaf stage, evaluated after 13 to 15 days
How it was run: as §2

[18] = system: sedge, umbrella (small-flower umbrella sedge, Cyperus difformis); experiment: as above; conditions: 250 g ai/ha, Flood, applied to paddy water, 2-leaf stage, evaluated after 13 to 15 days
How it was run: as §2

rice (Oryza sativa) = experiment: as above; conditions: 250 g ai/ha, Flood, applied to paddy water, 2-leaf stage, evaluated after 13 to 15 days
How it was run: as §2

Row | Structure (SMILES) | Barnyardgrass plant response rating [1] | Barnyardgrass plant response rating (0 to 100 scale) [1] | Kochia plant response rating (kochia (Kochia scoparia) [2]) | Kochia plant response rating (0 to 100 scale) (kochia (Kochia scoparia) [2]) | Foxtail, Giant plant response rating [3] | Foxtail, Giant plant response rating (0 to 100 scale) [3] | Pigweed plant response rating [4] | Pigweed plant response rating (0 to 100 scale) [4] | Ragweed plant response rating [5] | Ragweed plant response rating (0 to 100 scale) [5] | Ryegrass, Italian plant response rating [6] | Ryegrass, Italian plant response rating (0 to 100 scale) [6] | Barnyardgrass plant response rating (0 to 100 scale) [7] | Barnyardgrass plant response rating [7] | Galium plant response rating (0 to 100 scale) [8] | Galium plant response rating [8] | Blackgrass plant response rating (0 to 100 scale) [9] | Blackgrass plant response rating [9] | Kochia plant response rating (0 to 100 scale) (kochia (Kochia scoparia) [10]) | Kochia plant response rating (kochia (Kochia scoparia) [10]) | also measured
1 | CO/N=C(\c1c(O)c(Cl)nn(C)c1=O)c1cccc2ccccc12 [Compound 129, 6-chloro-5-hydroxy-4-[(Z)-(methoxyimino)-1-naphthalenylmethyl]-2-methyl-3(2H)-pyridazinone] | 60 | 80 | 10 | 50 | 60 | 80 | 10 | 90 | 70 | 100 | 0 | 0 | 50 | 30 | 90 | 80 | 70 | 30 | 80 | 70 | Foxtail, Giant plant response rating (0 to 100 scale) [11]: 60; Foxtail, Giant plant response rating [11]: 40; Pigweed plant response rating (0 to 100 scale) [12]: 70; Pigweed plant response rating [12]: 40; Corn plant response rating (0 to 100 scale) (corn (Zea mays)): 0; Corn plant response rating (corn (Zea mays)): 0; Ragweed plant response rating (0 to 100 scale) [13]: 100; Ragweed plant response rating [13]: 90; Wheat plant response rating (0 to 100 scale) [14]: 0; Wheat plant response rating [14]: 0; Ryegrass, Italian plant response rating (0 to 100 scale) [15]: 10; Ryegrass, Italian plant response rating [15]: 0; Plant response rating, Barnyardgrass (0 to 100 scale, 0 is no effect, 100 is complete control) [16]: 0; Plant response rating, Ducksalad (0 to 100 scale, 0 is no effect, 100 is complete control) [17]: 0; Plant response rating, Sedge, Umbrella (0 to 100 scale, 0 is no effect, 100 is complete control) [18]: 0; Plant response rating, Rice (0 to 100 scale, 0 is no effect, 100 is complete control) (rice (Oryza sativa)): 0
2 | CON=C(c1c(O)c(C)nn(C)c1=O)c1ccc(Cl)c2ccccc12 [Compound 130] | 0 | 70 | 0 | 0 | 30 | 60 | 50 | 50 | 20 | 50 | 30 | 50 | 30 | 30 | 90 | 80 | 70 | 50 | 70 | 50 | Foxtail, Giant plant response rating (0 to 100 scale) [11]: 70; Foxtail, Giant plant response rating [11]: 30; Pigweed plant response rating (0 to 100 scale) [12]: 80; Pigweed plant response rating [12]: 70; Corn plant response rating (0 to 100 scale) (corn (Zea mays)): 30; Corn plant response rating (corn (Zea mays)): 10; Ragweed plant response rating (0 to 100 scale) [13]: 80; Ragweed plant response rating [13]: 60; Wheat plant response rating (0 to 100 scale) [14]: 40; Wheat plant response rating [14]: 10; Ryegrass, Italian plant response rating (0 to 100 scale) [15]: 90; Ryegrass, Italian plant response rating [15]: 30; Plant response rating, Barnyardgrass (0 to 100 scale, 0 is no effect, 100 is complete control) [16]: 0; Plant response rating, Ducksalad (0 to 100 scale, 0 is no effect, 100 is complete control) [17]: 0; Plant response rating, Sedge, Umbrella (0 to 100 scale, 0 is no effect, 100 is complete control) [18]: 35; Plant response rating, Rice (0 to 100 scale, 0 is no effect, 100 is complete control) (rice (Oryza sativa)): 0
